Results published in patent US12673946B2, “Pyrimidin-4(3H)-one derivatives as TRPV4 antagonists” (RaQualia Pharma Inc., priority 2020, dated 2026).

Target: T1, human TRPV4 (Homo sapiens, UniProt Q9HBA0)
T1 construct: host or cells: tetracycline-inducible Flp-In T-REx 293 cells
Assay: Hypotonicity-induced Ca2+ influx (Fluo-4, FDSS)
Format: cell-based
Summary of the method: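 Flp-In T-REx 293 cells with tetracycline-induced human TRPV4, loaded with Fluo-4 for 60 min at 25 °C. Compound added 5 min before hypotonic mannitol/CaCl2 solution. Ca2+ signal recorded for 4.5 min on FDSS.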

[1] = Flp-In T-REx 293 cells expressing human TRPV4, examples listed under heading 'Human IC50<50 nM'
[2] = Flp-In T-REx 293 cells stably expressing human TRPV4, compounds listed by potency bin (<10 nM Tables 96-1/96-2, <3 nM Table 97)

T1 sequence (Q9HBA0 whole entry): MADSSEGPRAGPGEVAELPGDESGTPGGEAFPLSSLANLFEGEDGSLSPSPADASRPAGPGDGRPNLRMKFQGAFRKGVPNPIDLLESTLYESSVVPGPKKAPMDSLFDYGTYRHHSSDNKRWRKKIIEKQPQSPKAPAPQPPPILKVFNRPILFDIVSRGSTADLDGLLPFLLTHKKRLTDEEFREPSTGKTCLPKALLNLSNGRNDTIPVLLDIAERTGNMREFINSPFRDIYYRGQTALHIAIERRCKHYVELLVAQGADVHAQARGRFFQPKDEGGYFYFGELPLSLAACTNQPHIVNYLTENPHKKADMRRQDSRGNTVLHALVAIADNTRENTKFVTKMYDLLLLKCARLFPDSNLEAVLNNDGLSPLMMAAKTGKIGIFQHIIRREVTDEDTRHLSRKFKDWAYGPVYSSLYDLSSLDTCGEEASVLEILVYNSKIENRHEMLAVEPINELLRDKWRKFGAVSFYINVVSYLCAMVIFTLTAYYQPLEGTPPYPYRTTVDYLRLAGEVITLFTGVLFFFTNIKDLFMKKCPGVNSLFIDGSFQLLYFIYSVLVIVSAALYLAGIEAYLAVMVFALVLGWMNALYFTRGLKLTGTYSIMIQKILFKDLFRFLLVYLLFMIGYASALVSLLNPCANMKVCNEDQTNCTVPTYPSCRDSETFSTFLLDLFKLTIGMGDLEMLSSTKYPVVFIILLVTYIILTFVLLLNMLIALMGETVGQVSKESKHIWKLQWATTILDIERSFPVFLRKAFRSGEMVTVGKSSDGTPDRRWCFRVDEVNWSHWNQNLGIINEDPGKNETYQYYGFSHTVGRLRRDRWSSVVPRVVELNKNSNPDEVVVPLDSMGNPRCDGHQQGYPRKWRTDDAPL

IC50 [1] [nM]	IC50 [2] [nM]	Structure (SMILES)
< 50		O=C(C(O)c1cccc(-c2cccc(F)c2)c1F)N1CCc2nc(C3(c4ccccc4)CC3)[nH]c(=O)c2C1 (centres unmarked) [44-33]
< 50	< 3	Cc1cc(-c2cccc([C@@H](O)C(=O)N3CCCc4nc(C5(c6ccccc6)CC5)[nH]c(=O)c4C3)c2)ccc1Cl [49-51]
< 50		O=C([C@H](O)c1cccc(Cl)c1)N1CCCc2nc(C3(c4cccc(F)c4)CC3)[nH]c(=O)c2C1 [17-57]
< 50		O=C(COc1cccc(-c2ccccc2)c1)N1CCCc2nc(C3(c4cccc(Cl)c4)CC3)[nH]c(=O)c2C1 [17-105]
< 50	< 10	CN(Cc1ccc(Oc2ccccc2)cc1)C(=O)c1csc(C2(c3nc4c(c(=O)[nH]3)CN(C(=O)[C@H](O)c3cccc(C(F)(F)F)c3)CCC4)CC2)c1 [59-11]
< 50	< 10	O=C([C@H](O)c1cccc(Br)c1)N1CCCc2nc(C3(c4ccccc4)CC3)[nH]c(=O)c2C1 [17-77]
< 50	< 10	O=C(C(O)c1cccc(-c2cccc(OC(F)(F)F)c2)c1)N1CCCc2nc(C3(c4ccccc4)CC3)[nH]c(=O)c2C1 (centres unmarked) [49-7]
< 50	< 10	O=C(C(O)c1cccc(-c2ccc(-c3ccc(Cl)cc3)cc2)c1)N1CCc2nc(C3(c4ccccc4)CC3)[nH]c(=O)c2C1 (centres unmarked) [44-118]
< 50		O=C(C(O)c1cccc(S(F)(F)(F)(F)F)c1)N1CCc2nc(C3(c4cccc(Cl)c4)CC3)[nH]c(=O)c2C1 (centres unmarked) [14-17]
< 50	< 10	O=C([C@H](O)c1cccc(-c2cccc(F)c2)c1)N1CCCc2nc(C3(c4cccs4)CC3)[nH]c(=O)c2C1 [53-5]
< 50	< 10	CC(C)c1csc(C2(c3nc4c(c(=O)[nH]3)CN(C(=O)[C@H](O)c3cccc(-c5cccc(C(F)(F)F)c5)c3)CCC4)CC2)c1 [54-4]
< 50	< 10	O=C([C@H](O)c1cccc(-c2cc(Cl)ccc2Cl)c1)N1CCCc2nc(C3(c4ccccc4)CC3)[nH]c(=O)c2C1 [49-43]
< 50	< 10	CC(C)c1cccc(C2(c3nc4c(c(=O)[nH]3)CN(C(=O)Cc3cccc(-c5cccc(C(F)(F)F)c5)c3)CC4)CC2)c1 [27-6]
< 50	< 10	O=C(C(O)c1cccc(-c2cccc(OC(F)(F)F)c2)c1)N1CCc2nc(C3(c4cccc(Cl)c4)CC3)[nH]c(=O)c2C1 (centres unmarked) [14-5]
< 50	< 10	O=C([C@H](O)c1cccc(-c2ccc(C(F)(F)F)cc2)c1)N1CCCc2nc(C3(c4cccc(Cl)c4)CC3)[nH]c(=O)c2C1 [50-24]
< 50	< 10	O=C(C(O)c1cccc(-c2ccnc(C(F)(F)F)c2)n1)N1CCc2nc(C3(c4ccccc4)CC3)[nH]c(=O)c2C1 (centres unmarked) [48-3]
< 50		CN(C)Cc1ccc(-c2cccc(C3(c4nc5c(c(=O)[nH]4)CN(C(=O)[C@H](O)c4cccc(C(F)(F)F)c4)CCC5)CC3)c2)cc1 [42-53]
< 50	< 10	O=C([C@H](O)c1cccc(C(F)(F)F)c1)N1CCc2nc(C3(c4cncc(C5CCC(F)(F)CC5)c4)CC3)[nH]c(=O)c2C1 [28-4]
< 50	< 3	O=C([C@H](O)c1cccc(Cl)c1)N1CCCc2nc(C3(c4cccc(-c5ccc(F)cc5)c4)CC3)[nH]c(=O)c2C1 [40-9]
< 50	< 10	O=C([C@H](O)c1cccc(C(F)(F)F)c1)N1CCCc2nc(C3(c4cc(C(=O)N(Cc5ccccc5)C5CCCCC5)cs4)CC3)[nH]c(=O)c2C1 [59-16]

IC50 [1] [nM]	IC50 [2] [nM]	Structure (SMILES)
< 50	< 10	Cc1cc(Cl)cc(-c2cccc(C(O)C(=O)N3CCc4nc(C5(c6ccccc6)CC5)[nH]c(=O)c4C3)c2)c1 (centres unmarked) [44-16]
< 50	< 3	O=C([C@H](O)c1cccc(C(F)(F)F)c1)N1CCc2nc(C3(c4cncc(C5CCCC5)c4)CC3)[nH]c(=O)c2C1 [28-1]
< 50		O=C(C(O)c1cccc(OCC(F)(F)F)c1)N1CCCc2nc(C3(c4cccc(Cl)c4)CC3)[nH]c(=O)c2C1 (centres unmarked) [17-50]
< 50	< 10	O=C(C(O)c1cccc(-c2ccc(Cl)cc2)c1)N1CCCc2nc(C3(c4cccc(F)c4)CC3)[nH]c(=O)c2C1 (centres unmarked) [17-34]
< 50	< 10	O=C(Cc1cccc(-c2cccc(F)c2)c1)N1CCCc2nc(C3(c4ccccc4)CC3)[nH]c(=O)c2C1 [57-1]
< 50		O=C([C@H](O)c1cccc(Cl)c1)N1CCc2nc(C3(c4cccc(F)c4)CC3)[nH]c(=O)c2C1 [3-31]
< 50	< 3	CC(C)c1cccc(C2(c3nc4c(c(=O)[nH]3)CN(C(=O)[C@H](O)c3cccc(C5=CCCC5)c3)CCC4)CC2)c1 [51-7]
< 50	< 10	CC(C)Oc1cccc(-c2cccc(C(F)(F)C(=O)N3CCCc4nc(C5(c6ccccc6)CC5)[nH]c(=O)c4C3)c2)c1 [58-3]
< 50	< 10	O=C([C@H](O)c1cccc(-c2csc3ccccc23)c1)N1CCCc2nc(C3(c4cccc(Cl)c4)CC3)[nH]c(=O)c2C1 [50-1]
< 50	< 3	CC(C)Oc1cccc(-c2cccc([C@@H](O)C(=O)N3CCCc4nc(C5(c6ccccc6)CC5)[nH]c(=O)c4C3)c2)c1 [49-45]
< 50	< 10	CC(C)N(C(=O)c1csc(C2(c3nc4c(c(=O)[nH]3)CN(C(=O)[C@H](O)c3cccc(C(F)(F)F)c3)CCC4)CC2)c1)C1CCCCC1 [59-15]
< 50	< 10	O=C([C@H](O)c1cccc(-c2cc(F)cc(Cl)c2)c1)N1CCc2nc(C3(c4ccccc4)CC3)[nH]c(=O)c2C1 [44-77]
< 50		CC(C)(C)c1cccc(C(O)C(=O)N2CCc3nc(C4(c5cccs5)CC4)[nH]c(=O)c3C2)c1 (centres unmarked) [15-17]
< 50	< 10	O=C([C@H](O)c1cccc(-c2csc3ccccc23)c1)N1CCCc2nc(C3(c4cc(C5CCCCC5)cs4)CC3)[nH]c(=O)c2C1 [54-8]
< 50	< 3	CC(C)c1cncc(C2(c3nc4c(c(=O)[nH]3)CN(C(=O)[C@H](O)c3cccc(-c5cccc(F)c5)c3)CCC4)CC2)c1 [55-7]
< 50		O=C([C@H](O)c1cccc(Cl)c1)N1CCc2nc(C3(c4cccs4)CC3)[nH]c(=O)c2C1 [6-7]
< 50	< 10	O=C(C(O)c1cccc(-c2cc3ccccc3s2)c1)N1CCc2nc(C3(c4ccccc4)CC3)[nH]c(=O)c2C1 (centres unmarked) [44-9]
< 50	< 10	CC(C)c1cncc(C2(c3nc4c(c(=O)[nH]3)CN(C(=O)[C@H](O)c3cccc(-c5ccc(C(F)(F)F)nc5)c3)CC4)CC2)c1 [47-5]
< 50		O=C(C(O)c1cccc(C(F)(F)F)c1F)N1CCc2nc(C3(c4cccs4)CC3)[nH]c(=O)c2C1 (centres unmarked) [15-16]
< 50	< 10	O=C([C@H](O)c1cccc(-c2cccc(C3CC3)c2)c1)N1CCc2nc(C3(c4ccccc4)CC3)[nH]c(=O)c2C1 [44-105]

IC50 [1] [nM]	IC50 [2] [nM]	Structure (SMILES)
< 50	< 10	CC(C)(C)c1cccc(C(O)C(=O)N2CCCc3nc(C4(c5cccc(F)c5)CC4)[nH]c(=O)c3C2)c1 (centres unmarked) [17-21]
< 50		CC(C)(C)c1ccc(-c2cccc(CC(=O)N3CCCc4nc(C5(c6ccccc6)CC5)[nH]c(=O)c4C3)c2)cc1 [17-132]
< 50	< 10	O=C([C@H](O)c1cccc(C(F)(F)F)c1)N1CCCc2nc(C3(c4cccc(Cl)c4)CC3)[nH]c(=O)c2C1 [17-12]
< 50	< 10	CC(C)c1cncc(C2(c3nc4c(c(=O)[nH]3)CN(C(=O)[C@H](O)c3cccc(-c5cccc(C(C)(C)C)c5)c3)CCC4)CC2)c1 [55-6]
< 50		O=C(C(O)c1cccc(C(F)(F)F)c1)N1CCc2nc(C3(c4ccc(F)cc4)CC3)[nH]c(=O)c2C1 (centres unmarked) [3-67]
< 50	< 3	CC(c1cccc(C2(c3nc4c(c(=O)[nH]3)CN(C(=O)[C@H](O)c3cccc(C(F)(F)F)c3)CCC4)CC2)c1)C(F)(F)F (some centres unmarked) [31-4]
< 50		O=C([C@@H](O)c1cccc(C(F)(F)F)c1)N1CCCc2nc(C3(c4cccc(Cl)c4)CC3)[nH]c(=O)c2C1 [17-93]
< 50	< 10	CC(C)(C)c1ccc(-c2cccc(C3(c4nc5c(c(=O)[nH]4)CN(C(=O)[C@H](O)c4cccc(Cl)c4)CCC5)CC3)c2)cc1 [40-5]
< 50	< 10	Cn1ncc2cc(-c3cccc(C4(c5nc6c(c(=O)[nH]5)CN(C(=O)[C@H](O)c5cccc(C(F)(F)F)c5)CCC6)CC4)c3)ccc21 [42-20]
< 50		O=C([C@H](O)c1cccc(-c2cc(F)cc(Cl)c2)c1)N1CCc2nc(C3(c4cccc(Cl)c4)CC3)[nH]c(=O)c2C1 [45-9]
< 50		O=C([C@H](O)c1cccc(-c2ccc3cccnc3c2)c1)N1CCc2nc(C3(c4ccccc4)CC3)[nH]c(=O)c2C1 [44-90]
< 50		CC(C)(C)c1cccc(C(O)C(=O)N2CCCc3nc(C4(c5ccccc5)CC4)[nH]c(=O)c3C2)c1 (centres unmarked) [17-47]
< 50		O=C([C@H](O)c1cccc(C(F)(F)F)c1)N1CCCc2nc(C3(c4cncc(-c5cnsc5)c4)CC3)[nH]c(=O)c2C1 [43-2]
< 50		O=C([C@H](O)c1cccc(Cl)c1)N1CCCc2nc(C3(c4cncc(-c5cnsc5)c4)CC3)[nH]c(=O)c2C1 [19-10]
< 50	< 10	O=C(Cc1cccc(-c2cccc(Cl)c2)c1)N1CCCc2nc(C3(c4cncc(-c5ccccc5)c4)CC3)[nH]c(=O)c2C1 [19-15]
< 50	< 10	O=C([C@H](O)c1cccc(-c2cccc(OCc3ccccc3)c2)c1)N1CCc2nc(C3(c4ccccc4)CC3)[nH]c(=O)c2C1 [44-93]
< 50	< 10	CC(C)(C)c1cccc(-c2cccc([C@@H](O)C(=O)N3CCCc4nc(C5(c6cncc(C7CCCCC7)c6)CC5)[nH]c(=O)c4C3)c2)c1 [55-12]
< 50	< 3	COc1cc(-c2cccc(C3(c4nc5c(c(=O)[nH]4)CN(C(=O)[C@H](O)c4cccc(C(F)(F)F)c4)CCC5)CC3)c2)ccn1 [42-2]
